Measurements: publication PMC7377239, “Cardiovascular Effects of Polychlorinated Biphenyls and Their Major Metabolites” (Environmental Health Perspectives, 2020)
Read-outs that look alike come from different tables or passages of the source.

System: iCell cardiomyocytes (human iPSC-derived cardiomyocytes)
Assay: Intracellular Ca2+ flux / beating parameters in iCell cardiomyocytes (FLIPR tetra), 90 min or 24 h
Format: cell-based
Conditions: Homo sapiens, Cardiomyocyte, 0.00 µM = 100.00; for activity at 0.1 µM: 0.10 µM
Method in brief: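 PODs were defined as the concentration crossing one SD of the vehicle-control means (0.5% DMSO) on four-parameter logistic fits of Ca2+ trace metrics (peak height, frequency, peak-spacing CV, decay/rise ratio). Traces came from 100 s, 8 Hz FLIPR reads at 37 °C on calcium-dye-loaded iCell cardiomyocytes. Before reading, cells were treated for 90 min or 24 h from 5× chemical plates spanning 0.05–500 µM, in triplicate.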

[1] = 1.5 h, read-out: cm.amp.avg.90min
[2] = 1.5 h, read-out: cm.amp.cv.90min
[3] = 1.5 h, read-out: cm.decay.rise.90min
[4] = 1.5 h, read-out: cm.spacing.cv.90min
[5] = 24 h, read-out: cm.amp.avg.24hrs
[6] = 24 h, read-out: cm.amp.cv.24hrs
[7] = 24 h, read-out: cm.decay.rise.24hrs
[8] = 24 h, read-out: cm.spacing.cv.24hrs

`Clc1ccc(-c2ccccc2)cc1` [PCB3] showed an activity at 0.01 µM [1] of 98.5%, an activity at 0.01 µM [2] of 109% and an activity at 0.01 µM (1.5 h, read-out: cm.bpm.90min) of 95.3%. It also gave an activity at 0.01 µM [3] of 98.9%, an activity at 0.01 µM [4] of 124% and an activity at 0.1 µM [1] of 104%. The activity at 0.1 µM [2] was 102%, the activity at 0.1 µM (1.5 h, read-out: cm.bpm.90min) was 96.5% and the activity at 0.1 µM [3] was 99.5%. It also gave an activity at 0.1 µM [4] of 116%, an activity at 1 µM [1] of 99.9% and an activity at 1 µM [2] of 123%. For the same compound, the activity at 1 µM (1.5 h, read-out: cm.bpm.90min) was 96.5%, the activity at 1 µM [3] was 96.1% and the activity at 1 µM [4] was 130%. The activity at 10 µM [1] was 99.5%, the activity at 10 µM [2] was 115% and the activity at 10 µM (1.5 h, read-out: cm.bpm.90min) was 103%. It also gave an activity at 10 µM [3] of 98.8%, an activity at 10 µM [4] of 121% and an activity at 100 µM [1] of 81.2%. It also gave an activity at 100 µM [2] of 180%, an activity at 100 µM (1.5 h, read-out: cm.bpm.90min) of 193% and an activity at 100 µM [3] of 99.9%. For the same compound, the activity at 100 µM [4] was 133%, the activity at 0.01 µM [5] was 91.3% and the activity at 0.01 µM [6] was 119%. For the same compound, the activity at 0.01 µM (24 h, read-out: cm.bpm.24hrs) was 103%, the activity at 0.01 µM [7] was 98.3% and the activity at 0.01 µM [8] was 138%. The activity at 0.1 µM [5] was 87.1%, the activity at 0.1 µM [6] was 41.5% and the activity at 0.1 µM (24 h, read-out: cm.bpm.24hrs) was 52.5%. It also gave an activity at 0.1 µM [7] of 47.1%, an activity at 0.1 µM [8] of 61.2% and an activity at 1 µM [5] of 87.1%. The activity at 1 µM [6] was 146%, the activity at 1 µM (24 h, read-out: cm.bpm.24hrs) was 103% and the activity at 1 µM [7] was 104%. The activity at 1 µM [8] was 118%, the activity at 10 µM [5] was 110% and the activity at 10 µM [6] was 106%. The activity at 10 µM (24 h, read-out: cm.bpm.24hrs) was 110%, the activity at 10 µM [7] was 98.5% and the activity at 10 µM [8] was 128%. It also gave an activity at 100 µM [5] of 0%, an activity at 100 µM [6] of 0% and an activity at 100 µM (24 h, read-out: cm.bpm.24hrs) of 0%. The activity at 100 µM [7] was 0% and the activity at 100 µM [8] was 0%.
`Clc1cccc(-c2cccc(Cl)c2)c1` [PCB11] showed an activity at 0.01 µM [1] of 99.2%, an activity at 0.01 µM [2] of 103% and an activity at 0.01 µM (1.5 h, read-out: cm.bpm.90min) of 103%. For the same compound, the activity at 0.01 µM [3] was 101%, the activity at 0.01 µM [4] was 93.4% and the activity at 0.1 µM [1] was 102%. The activity at 0.1 µM [2] was 91.4%, the activity at 0.1 µM (1.5 h, read-out: cm.bpm.90min) was 103% and the activity at 0.1 µM [3] was 98.2%. It also gave an activity at 0.1 µM [4] of 89.8%, an activity at 1 µM [1] of 105% and an activity at 1 µM [2] of 97.9%. The activity at 1 µM (1.5 h, read-out: cm.bpm.90min) was 95.3%, the activity at 1 µM [3] was 99.6% and the activity at 1 µM [4] was 107%. The activity at 10 µM [1] was 94.8%, the activity at 10 µM [2] was 99.8% and the activity at 10 µM (1.5 h, read-out: cm.bpm.90min) was 114%. The activity at 10 µM [3] was 91.8%, the activity at 10 µM [4] was 101% and the activity at 100 µM [1] was 22.3%. The activity at 100 µM [2] was 139%, the activity at 100 µM (1.5 h, read-out: cm.bpm.90min) was 0% and the activity at 100 µM [3] was 54.6%. The activity at 100 µM [4] was 66.2%, the activity at 0.01 µM [5] was 137% and the activity at 0.01 µM [6] was 77.1%. For the same compound, the activity at 0.01 µM (24 h, read-out: cm.bpm.24hrs) was 108%, the activity at 0.01 µM [7] was 93.4% and the activity at 0.01 µM [8] was 127%. It also gave an activity at 0.1 µM [5] of 134%, an activity at 0.1 µM [6] of 69.8% and an activity at 0.1 µM (24 h, read-out: cm.bpm.24hrs) of 105%. For the same compound, the activity at 0.1 µM [7] was 98.1%, the activity at 0.1 µM [8] was 98.2% and the activity at 1 µM [5] was 130%. It also gave an activity at 1 µM [6] of 77.5%, an activity at 1 µM (24 h, read-out: cm.bpm.24hrs) of 93.6% and an activity at 1 µM [7] of 108%. The activity at 1 µM [8] was 92.8%, the activity at 10 µM [5] was 110% and the activity at 10 µM [6] was 90.8%. For the same compound, the activity at 10 µM (24 h, read-out: cm.bpm.24hrs) was 106%, the activity at 10 µM [7] was 111% and the activity at 10 µM [8] was 98.2%. For the same compound, the activity at 100 µM [5] was 0%, the activity at 100 µM [6] was 0% and the activity at 100 µM (24 h, read-out: cm.bpm.24hrs) was 0%. The activity at 100 µM [7] was 0% and the activity at 100 µM [8] was 0%.
